Results as given in PMC6277767, “Broad and Region-Specific Impacts of the Synthetic Cannabinoid CP 55,940 in Adolescent and Adult Female Mouse Brains” (Frontiers in Molecular Neuroscience, 2018).

System: CD1 female mouse brain lipidome
Assay: Brain-region lipid levels (HPLC/MS/MS lipidomics) 2 h after single i.p. 3 mg/kg CP 55,940 vs vehicle
Type: in vivo
Parameters: N-arachidonoyl phenylalanine level, Mean / N-stearoyl tryptophan level, Mean / N-stearoyl proline level, Mean / N-stearoyl leucine level, Mean / N-stearoyl phenylalanine level, Mean / N-stearoyl serine level, Mean / N-stearoyl methionine level, Mean: unit: moles per gram
Conditions: thalamus
Experimental: The Bloomington Institutional Animal Care and Use Committee of Indiana University reviewed and approved the animal procedures. Female mice from the CD1 strain were utilized to match our study examining THC’s effects on the brain lipidome ([Leishman et al., 2018]). Mice were given a single i.p. injection of either 3 mg/kg CP or 1:1:18 cremophor:ethanol:saline vehicle (please refer to the section “3 mg/kg CP Is Relevant for Synthetic Cannabinoid Abuse and Has Stronger Effects on the Female Mouse Brain Lipidome During Adolescence” for a justification of dose and use of female mice). Three different age groups were given injections: PND 35 and PND 50 adolescents, and adult mice (PND 113). At least eight mice in each age group received CP and at least eight received vehicle. Matching the THC study time course ([Leishman et al., 2018]), mice were sacrificed via rapid decapitation 2 h after injection. Brains were immediately removed and flash-frozen in liquid nitrogen, and then stored at -80°C until dissections were performed. Brains were dissected on an ice-cold dissection plate into the following regions: STR, HIPP, CER, THAL, CTX, HYP, MID, and STEM. These abbreviations for these brain areas will be used exclusively when discussing the results generated by these specific dissections. Each dissected area was immediately placed in liquid nitrogen and then stored at -80°C until used for lipid extraction.
Tissue extracts were performed as previously described ([Bradshaw et al., 2006]; [Stuart et al., 2013]; [Raboune et al., 2014]; [Leishman et al., 2016a],[b], [2017], [2018]). First, samples were shock frozen in liquid nitrogen, weighed, and transferred to a centrifuge tube. The mass of the largest sample was multiplied by 50 to determine how many milliliters of HPLC-grade methanol (Fisher, Fair Lawn, NJ, United States) to add. Then, samples were spiked with 500 pmol deuterium-labeled NAGly (d8NAGly; Cayman Chemical, Ann Arbor, MI, United States). Samples were placed on ice in darkness for 2 h then individually homogenized and centrifuged at 19,000 × g for 20 min at 20°C. Supernatants were diluted with HPLC water (purified in house) to make a solution of 75% water, 25% supernatant. Lipids were partially purified on C18 solid phase extraction columns (Agilent, Palo Alto, CA, United States). A series of four elutions with 1.5 mL of 60%, 75%, 85%, and 100% methanol were collected ([Stuart et al., 2013]; [Leishman et al., 2016a],[b], [2018]).
As previously described ([Bradshaw et al., 2006]; [Tan et al., 2006]; [Smoum et al., 2010]; [Stuart et al., 2013]; [Tortoriello et al., 2013]; [Raboune et al., 2014]; [Leishman et al., 2016a],[b], [2017], [2018]), samples were analyzed using an Applied Biosystems API 3000 triple quadrupole mass spectrometer with electrospray ionization (Foster City, CA, United States). Using an Agilent XDB-C18 reversed phase analytical column and optimized mobile phase gradients, 20 μL from each elution were chromatographed. Two Shimadzu 10ADvp pumps (Columbia, MD, United States) provided the pressure for gradient elution. Mobile phase A: 20% methanol, 80% water (v/v) and 1 mM ammonium acetate (Sigma, St. Louis, MO, United States). Mobile phase B: 100% methanol, 1 mM ammonium acetate. Every method run began with 0% mobile phase B, reached 100% mobile phase B flowing at 0.2 mL/min, and gradually returned to 0% mobile phase B.
This screening library will be referred to as the lipidome when discussing data from this study. HPLC/MS/MS data were analyzed using Analyst software (Applied Biosystems) ([Bradshaw et al., 2006]; [Tan et al., 2006]; [Stuart et al., 2013]; [Tortoriello et al., 2013]; [Raboune et al., 2014]; [Leishman et al., 2016a],[b], [2017], [2018]). Chromatograms (Supplementary Figure 3) were generated by determining the retention time of analytes from the analytical column with a [M-1] or [M+1] parent peak and a fragmentation peak corresponding to the programmed values. […]

[1] = PND 50 female mice, 3 mg/kg CP 55,940
[2] = WT adult female mice, 3mg/kg CP 55,940

CCCCCCC(C)(C)c1ccc([C@@H]2C[C@H](O)CC[C@H]2CCCO)c(O)c1 [CP 55,940]
N-palmitoyl serine: Direction (relative to Veh) (PND 50, 3 mg/kg CP 55,940): ↓
N-palmitoyl serine: Magnitude (x Veh level) (PND 50, 3 mg/kg CP 55,940): 0.82 x Veh level
N-stearoyl serine: Direction (relative to Veh) (PND 50, 3 mg/kg CP 55,940): ↓
N-stearoyl serine: Magnitude (x Veh level) (PND 50, 3 mg/kg CP 55,940): 0.87 x Veh level
Oleic acid: Direction (relative to Veh) (PND 50, 3 mg/kg CP 55,940): ↓
Oleic acid: Magnitude (x Veh level) (PND 50, 3 mg/kg CP 55,940): 0.83 x Veh level
PGE2: Direction (relative to Veh) (PND 50, 3 mg/kg CP 55,940): ↓
PGE2: Magnitude (x Veh level) (PND 50, 3 mg/kg CP 55,940): 0.74 x Veh level
PGF2α: Direction (relative to Veh) (PND 50, 3 mg/kg CP 55,940): ↓
PGF2α: Magnitude (x Veh level) (PND 50, 3 mg/kg CP 55,940): 0.84 x Veh level
2-arachidonoyl glycerol level, Mean [1]: 2.19E-10
2-linoleoyl glycerol level, Mean [1]: 2.06E-10
2-oleoyl glycerol level, Mean [1]: 2.79E-09
2-palmitoyl glycerol level, Mean [1]: 1.02E-09
6-ketoPGF1α level, Mean [1]: 1.21E-11
11-OH-THC level, Mean [1]: BDL
11-nor-9-carboxyTHC level, Mean [1]: BDL
Arachidonic acid level, Mean [1]: 3.32E-10
Cannabidiol level, Mean [1]: BDL
Linoleic acid level, Mean [1]: 2.28E-10
N- stearoyl valine level, Mean [1]: 1.2E-13
N-arachidonoyl GABA level, Mean [1]: 1.06E-11
N-arachidonoyl dopamine level, Mean [1]: BDL
N-arachidonoyl ethanolamine level, Mean [1]: 3.67E-11
N-arachidonoyl glycine level, Mean [1]: 2.22E-12
N-arachidonoyl phenylalanine level, Mean [1]: 2.35E-13
N-arachidonoyl proline level, Mean [1]: BDL
N-arachidonoyl serine level, Mean [1]: 9.47E-12
N-arachidonoyl taurine level, Mean [1]: 2.48E-11
N-arachidonoyl tryptophan level, Mean [1]: BDL
N-arachidonoyl tyrosine level, Mean [1]: 3.46E-13
N-docosahexaenoyl GABA level, Mean [1]: 1.17E-12
N-docosahexaenoyl ethanolamine level, Mean [1]: 4.85E-11
N-docosahexaenoyl glycine level, Mean [1]: 2.76E-13
N-docosahexaenoyl leucine level, Mean [1]: 1.83E-13
N-docosahexaenoyl proline level, Mean [1]: BDL
N-docosahexaenoyl serine level, Mean [1]: 1.8E-11
N-docosahexaenoyl tryptophan level, Mean [1]: BDL
N-docosahexaenoyl tyrosine level, Mean [1]: 5.89E-13
N-docosahexaenoyl valine level, Mean [1]: BDL
N-linoleoyl GABA level, Mean [1]: 6.3E-13
N-linoleoyl ethanolamine level, Mean [1]: 5.72E-11
N-linoleoyl glycine level, Mean [1]: 1.48E-13
N-linoleoyl leucine level, Mean [1]: 4.17E-14
N-linoleoyl proline level, Mean [1]: BDL
N-linoleoyl serine level, Mean [1]: 6.59E-11
N-linoleoyl tryptophan level, Mean [1]: BDL
N-linoleoyl valine level, Mean [1]: BDL
N-nervonoyl valine level, Mean [1]: BDL
N-oleoyl GABA level, Mean [1]: 4.02E-12
N-oleoyl alanine level, Mean [1]: 7.11E-13
N-oleoyl dopamine level, Mean [1]: BDL
N-oleoyl ethanolamine level, Mean [1]: 9.26E-11
N-oleoyl glycine level, Mean [1]: 1.74E-12
N-oleoyl leucine level, Mean [1]: 5.99E-13
N-oleoyl methionine level, Mean [1]: 2.91E-13
N-oleoyl phenylalanine level, Mean [1]: 9.22E-13
N-oleoyl proline level, Mean [1]: BDL
N-oleoyl serine level, Mean [1]: 1.27E-10
N-oleoyl tryptophan level, Mean [1]: BDL
N-oleoyl tyrosine level, Mean [1]: 4.03E-13
N-palmitoyl GABA level, Mean [1]: 1.06E-11
N-palmitoyl alanine level, Mean [1]: 2.52E-12
N-palmitoyl ethanolamine level, Mean [1]: 7.34E-11
N-palmitoyl glycine level, Mean [1]: 9.61E-12
N-palmitoyl leucine level, Mean [1]: 1.53E-12
N-palmitoyl methionine level, Mean [1]: 1.27E-12
N-palmitoyl phenylalanine level, Mean [1]: 1.34E-12
N-palmitoyl proline level, Mean [1]: BDL
N-palmitoyl serine level, Mean [1]: 2.63E-11
N-palmitoyl tryptophan level, Mean [1]: BDL
N-palmitoyl tyrosine level, Mean [1]: 8.81E-13
N-palmitoyl valine level, Mean [1]: 1.92E-13
N-stearoyl GABA level, Mean [1]: 1.06E-11
N-stearoyl alanine level, Mean [1]: 5.6E-13
N-stearoyl ethanolamine level, Mean [1]: 3.31E-11
N-stearoyl glycine level, Mean [1]: 1.16E-12
N-stearoyl leucine level, Mean [1]: 1.04E-12
N-stearoyl methionine level, Mean [1]: 8.73E-13
N-stearoyl phenylalanine level, Mean [1]: 1.21E-12
N-stearoyl proline level, Mean [1]: BDL
N-stearoyl serine level, Mean [1]: 4.06E-11
N-stearoyl tryptophan level, Mean [1]: BDL
N-stearoyl tyrosine level, Mean [1]: 1.18E-13
Oleic acid level, Mean [1]: 3.18E-10
PGE2 level, Mean [1]: 8.74E-11
THC level, Mean [1]: BDL
2-arachidonoyl glycerol level, Mean [2]: 3E-09
2-linoleoyl glycerol level, Mean [2]: 2.71E-10
2-oleoyl glycerol level, Mean [2]: 3.61E-09
2-palmitoyl glycerol level, Mean [2]: 8.84E-11
6-ketoPGF1α level, Mean [2]: 3.33E-11
Arachidonic acid level, Mean [2]: 9.32E-10
Linoleic acid level, Mean [2]: 4.92E-10
N-arachidonoyl GABA level, Mean [2]: 2.04E-11
N-arachidonoyl alanine level, Mean [2]: 9.44E-13
N-arachidonoyl ethanolamine level, Mean [2]: 1.69E-11
N-arachidonoyl glycine level, Mean [2]: 5.38E-13
N-arachidonoyl phenylalanine level, Mean [2]: 1.15E-13
N-arachidonoyl taurine level, Mean [2]: 5.3E-11
N-arachidonoyl tyrosine level, Mean [2]: 6.37E-13
N-docosahexaenoyl GABA level, Mean [2]: 9.36E-12
